Assay results: patent US11471512B2, “Pharmaceutical compositions of a peptide” (Merck Sharp & Dohme Corp., priority 2019, dated 2022)
Starred links: 1 amine or outer side, 2 acyl side, 3 side chain; linkers in the order of their positions; H or OH if unused. Non-standard residues stand in square brackets, D forms with d. Residues, ends and D or L forms follow the SMILES beside them. Groups on a side chain read outwards from the residue. *: point of attachment. γGlu = O=C(O)[C@H](CCC(=O)[*:2])N[*:1]; Palmitoyl = CCCCCCCCCCCCCCCC(=O)*; Aib = CC(C)(N)C(=O)O

Columns and labels:
[1] = Water solubility of the peptide as a function of pH; format: physicochemical; details: between pH 4 and pH 6
[2] = Chemical stability of the peptide in aqueous formulation as a function of pH; format: physicochemical; details: above pH 7.6

In the case of `CCCCCCCCCCCCCCCC(=O)N[C@@H](CCC(=O)N[C@@H](CCC(=O)NCCCC[C@H](NC(=O)[C@H](CC(=O)O)NC(=O)[C@H](CO)NC(=O)[C@@H](NC(=O)[C@H](Cc1ccccc1)NC(=O)[C@@H](NC(=O)CNC(=O)[C@H](CCC(N)=O)NC(=O)C(C)(C)NC(=O)[C@@H](N)Cc1c[nH]cn1)[C@@H](C)O)[C@@H](C)O)C(=O)N[C@@H](CO)C(=O)N[C@@H](CCCCN)C(=O)N[C@@H](Cc1ccc(O)cc1)C(=O)N[C@@H](CC(C)C)C(=O)N[C@@H](CC(=O)O)C(=O)NC(C)(C)C(=O)N[C@@H](CCCNC(=N)N)C(=O)N[C@@H](C)C(=O)N[C@@H](C)C(=O)N[C@@H](CCC(N)=O)C(=O)N[C@@H](CC(=O)O)C(=O)N[C@@H](Cc1ccccc1)C(=O)N[C@H](C(=O)N[C@@H](CCC(N)=O)C(=O)N[C@@H](Cc1c[nH]c2ccccc12)C(=O)N[C@@H](CC(C)C)C(=O)N[C@@H](CCSC)C(=O)N[C@@H](CC(N)=O)C(=O)N[C@H](C(=O)N[C@@H](CCCCN)C(=O)N[C@@H](CCC(N)=O)C(=O)O)[C@@H](C)O)C(C)C)C(=O)O)C(=O)O` [peptide of SEQ ID NO. 1, HUQGTFTSD K(γGlu-γGlu-C16) SKYLD aibRAAQDFVQWLMNTKγGlu-amide] (H-H[Aib]QGTFTSDK([γGlu-γGlu-Palmitoyl])SKYLD[Aib]RAAQDFVQWLMNTKQ-OH; N-terminus and C-terminus assumed), the water solubility [1] is reported as “poor water solubility” and the chemical stability [2] is reported as “poor chemical stability”.
